Here are results for ten compounds from patent publication US8207204B2, “Triazole derivatives as SCD inhibitors” (GlaxoSmithKline LLC, priority 2007, dated 2012).

By melting point is commonly meant the temperature of the solid-liquid transition. Consider `O=C(Nc1ncc(C(=O)NCCO)s1)c1cn(Cc2ccc(Cl)c(Cl)c2)nn1` [Example 35, 1-[(3,4-Dichlorophenyl)methyl]-N-(5-{[(2-hydroxyethyl)amino]carbonyl}-1,3-thiazol-2-yl)-1H-1,2,3-triazole-4-carboxamide], for which the melting point was 274.8 °C.
The compound `NC(=O)c1cnc(NC(=O)c2cn(Cc3ccc(Cl)c(Cl)c3)nn2)s1` [Example 36, N-[5-(Aminocarbonyl)-1,3-thiazol-2-yl]-1-[(3,4-dichlorophenyl)methyl]-1H-1,2,3-triazole-4-carboxamide] returned a melting point of 280.9 °C.
`Cc1nc(NC(=O)c2cn(Cc3ccc(Cl)c(Cl)c3)nn2)sc1C(N)=O` [Example 37, N-[5-(Aminocarbonyl)-4-methyl-1,3-thiazol-2-yl]-1-[(3,4-dichlorophenyl)methyl]-1H-1,2,3-triazole-4-carboxamide]: the melting point came out at 283 °C.
The result for `Cc1c(C(=O)Nc2nncs2)nnn1Cc1ccc(Cl)c(Cl)c1` [Example 38, 1-[(3,4-Dichlorophenyl)methyl]-5-methyl-N-1,3,4-thiadiazol-2-yl-1H-1,2,3-triazole-4-carboxamide] reads 215.6 °C; that for `Cc1c(C(=O)Nc2ncc(CO)s2)nnn1Cc1ccc(Cl)c(Cl)c1` [Example 39, 1-[(3,4-Dichlorophenyl)methyl]-N-[5-(hydroxymethyl)-1,3-thiazol-2-yl]-5-methyl-1H-1,2,3-triazole-4-carboxamide], 170.5 °C; that for `COCc1c(C(=O)Nc2ncc(CO)s2)nnn1Cc1ccc(Cl)c(Cl)c1` [Example 40, 1-[(3,4-Dichlorophenyl)methyl]-N-[5-(hydroxymethyl)-1,3-thiazol-2-yl]-5-[(methyloxy)methyl]-1H-1,2,3-triazole-4-carboxamide], 205 °C.
The compound `Cc1nc(NC(=O)c2nnn(Cc3ccc(Cl)c(Cl)c3)c2C)sc1CO` [Example 41, 1-[(3,4-Dichlorophenyl)methyl]-N-[5-(hydroxymethyl)-4-methyl-1,3-thiazol-2-yl]-5-methyl-1H-1,2,3-triazole-4-carboxamide] gave a melting point of 161.8 °C.
`Cc1c(C(=O)Nc2nnc(CO)s2)nnn1Cc1ccc(Cl)c(Cl)c1` [Example 42, 1-[(3,4-Dichlorophenyl)methyl]-N-[5-(hydroxymethyl)-1,3,4-thiadiazol-2-yl]-5-methyl-1H-1,2,3-triazole-4-carboxamide]: the melting point was 153.6 °C.
In the case of `Cc1c(C(=O)Nc2cc(CO)ccn2)nnn1Cc1ccc(Cl)c(Cl)c1` [Example 44, 1-[(3,4-Dichlorophenyl)methyl]-N-[4-(hydroxymethyl)-2-pyridinyl]-5-methyl-1H-1,2,3-triazole-4-carboxamide] it was 191 °C; in that of `COc1ccc2nc(C(=O)Nc3nnn(Cc4ccc(Cl)c(Cl)c4)c3C)sc2c1` [Example 45, N-{1-[(3,4-Dichlorophenyl)methyl]-5-methyl-1H-1,2,3-triazol-4-yl}-6-(methyloxy)-1,3-benzothiazole-2-carboxamide], 176 °C.
